Legend:
Format in all cases: in vivo
Corn ‘NK58D1 = assay: Field test, corn phytotoxicity after herbicide with or without insecticide (Table I); settings: scale 0-100
Protocol: (§1) Field tests were conducted in the following way: Corn was seeded with standard sowing implements and grown under natural conditions until the 2-3 leaf stage of corn was reached. Corn with or without insecticide treatments applied at seeding was grown at the same time. At 2-3 leaf stage, the herbicides only or in combination with the insecticide, if the insecticide has not been applied at seeding, was applied broadcast foliar over the top. At highest phytotoxicity levels for corn at five days after application and at maximal weed control levels at 16 days after application, the trial was evaluated.

Sweet Corn ‘Jubilee SS = assay: Field test, sweet corn phytotoxicity after herbicide with or without insecticide (Table I); settings: scale 0-100
Protocol: as §1

Amaranthus retroflexus = assay: Field test, weed control (Table I); settings: scale 0-100
Protocol: as §1

Corn Cecilia = assay: Glasshouse test, insecticide pre-plant incorporated followed by post application of herbicide, corn phytotoxicity (Table 2); settings: no insecticide, 20 days after last application
Text: (§2) Insecticide Pre-Plant Incorporated Followed by Post Application of the Herbicide
(§3) Prior to the planting of corn and weed, the substrate was filled into plastic pots and the different insecticides were applied with glasshouse spray equipment on bare soil at rates indicated in the results table. After the insecticide application, the substrate in the pots was mixed up in order to get an even distribution of the insecticide throughout the pot Crop and weed were planted following this procedure and grown under standard glasshouse conditions allowing optimal plant growth until 2-3 leaf stage. Then the herbicides were applied according to the rates indicated in the results table post emergent foliar over the top including standard adjuvants. The plants were visually evaluated on a scale of 0-100% wherein 0% indicated no phytotoxicity and 100% indicated full control or death. 0-15% indicates acceptable crop tolerance, 85-100% acceptable weed control. The evaluation was done at the time when maximal phytotoxicity or activity occurred.

Corn Sweet honeycomb = assay: Glasshouse test, insecticide and herbicide tank-mixed post emergent, corn phytotoxicity (Table 3); settings: no insecticide, 8 days after last application
Text: (§4) Insecticide and Herbicide Applied Tank-Mixed Post Emergent
as §3, with “pots.” for “pots and the different insecticides were applied with glasshouse spray equipment on bare soil at rates indicated in the results table. After the insecticide application, the substrate in the pots was mixed up in order to get an even distribution of the insecticide throughout the pot”, “according” for “according to”

Solanum Nigrum [1] = assay: Glasshouse test, insecticide pre-plant incorporated followed by post application of herbicide, weed control (Table 2); settings: no insecticide, 43 days after last application
Text: as §2, §3

Solanum Nigrum [2] = assay: Glasshouse test, insecticide and herbicide tank-mixed post emergent, weed control (Table 3); settings: no insecticide, 34 days after last application
Text: as §4
as §3, with “pots.” for “pots and the different insecticides were applied with glasshouse spray equipment on bare soil at rates indicated in the results table. After the insecticide application, the substrate in the pots was mixed up in order to get an even distribution of the insecticide throughout the pot”, “according” for “according to”

[3] = insecticide alone, in furrow at seeding 11.2 GA/100 Row M, 5 days
[4] = insecticide alone, post 1120 GA/Ha, 5 days
[5] = insecticide alone, in furrow at seeding 11.2 GA/100 Row M, 16 days
[6] = herbicide post 400 GA/Ha, scale 0-100
[7] = herbicide post, mesotrione 210 GA/Ha (a.e. for Cu), no insecticide, 5 days after last application

CCOP(=S)(OCC)Oc1nc(Cl)c(Cl)cc1Cl [Chlorpyrifos]
Phytotox. (Corn ‘NK58D1; [3]): 0% | Phytotox. (Corn ‘NK58D1; [4]): 0% | Phytotox. (Sweet Corn ‘Jubilee SS; [3]): 0% | Phytotox. (Sweet Corn ‘Jubilee SS; [4]): 0% | Weed Control (Amaranthus retroflexus; [5]): 0% | Weed Control (Amaranthus retroflexus; insecticide alone, post 1120 GA/Ha, 16 days): 0%

CS(=O)(=O)c1ccc(C(=O)C2C(=O)CCCC2=O)c([N+](=O)[O-])c1 [Mesotrione, 2-(2′-nitro-4′-methylsulphonylbenzoyl)-1,3-cyclohexanedione]
Phytotox. (Corn Cecilia; herbicide post 100 GA/Ha): 5% | Phytotox. (Corn Cecilia; herbicide post 200 GA/Ha): 0% | Phytotox. (Corn Cecilia; [6]): 0% | Phytotox. (Corn Sweet honeycomb; herbicide post 100 GA/Ha): 10% | Phytotox. (Corn Sweet honeycomb; herbicide post 200 GA/Ha): 20% | Phytotox. (Corn Sweet honeycomb; [6]): 20% | Weed Control (Solanum Nigrum [1]; herbicide post 100 GA/Ha): 98% | Weed Control (Solanum Nigrum [1]; herbicide post 200 GA/Ha): 100% | Weed Control (Solanum Nigrum [1]; [6]): 0% | Phytotox. (Corn ‘NK58D1; herbicide post, mesotrione 105 GA/Ha (a.e. for Cu), no insecticide, 5 days after last application, COC 1% V/V + UAN 2.5% V/V): 3.8% | Phytotox. (Corn ‘NK58D1; [7]): 8.8% | Phytotox. (Sweet Corn ‘Jubilee SS; herbicide post, mesotrione 105 GA/Ha (a.e. for Cu), no insecticide, 5 days after last application): 16.3% | Phytotox. (Sweet Corn ‘Jubilee SS; [7]): 15% | Weed Control (Solanum Nigrum [2]; herbicide post 100 GA/Ha): 100% | Weed Control (Solanum Nigrum [2]; herbicide post 200 GA/Ha): 100% | Weed Control (Solanum Nigrum [2]; [6]): 100% | Weed Control (Amaranthus retroflexus; herbicide post, mesotrione 105 GA/Ha (a.e. for Cu), no insecticide, 16 days after last application): 90% | Weed Control (Amaranthus retroflexus; herbicide post, mesotrione 210 GA/Ha (a.e. for Cu), no insecticide, 16 days after last application): 95%

CCOP(=S)(OCC)SCSC(C)(C)C [Terbufos]
Phytotox. (Corn ‘NK58D1; [3]): 0% | Phytotox. (Sweet Corn ‘Jubilee SS; [3]): 0% | Weed Control (Amaranthus retroflexus; [5]): 0%

Source: patent US7973083B2, “Pesticidally active compounds” (priority 2003, dated 2011)
